# Experimental data from US20250115598A1 (Anaxis Pharma Pty Ltd, priority 2021, published 2025).
# What was measured:
# human MLKL (full length) = human MLKL (full length) (Homo sapiens (Human), UniProt Q8NB16); test: KINOMEscan binding assay, human MLKL (full length); conditions: hMLKL, Table 25; read-out: MLKL (KD)
# Method in brief: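 Tagged kinase + immobilized ligand beads + compound; eluted kinase quantified by qPCR. Kinase source: T7 phage lysate (BL21-derived E. coli, 32 °C) or HEK-293 with DNA tag. 11-pt 3-fold series, 1% DMSO, top 30,000 nM (most). Hill fit, slope −1 → Kd.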
# [1] = tested on: Immortalised Mouse Dermal Fibroblasts (MDFs); test: Cellular assay: inhibition of TSI induced necroptosis, CellTitre-Glo viability; conditions: Mus musculus, Fibroblast; MDF, 3 hours TSI cocktail, Table 27; read-out: Inhibition of TSI-induced necroptosis (IC50 cell-based assay) in MDF
# Method in brief: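 Immortalised mouse dermal fibroblasts (2200 cells/well) pretreated 30 min with compound, 10-point 1:3 series from 36 μM, 0.3% DMSO. Then 3 h at 37° C. with TNF (100 ng/ml), Smac mimetic (500 nM) and IDN-6556 (10 μM). CellTiter-Glo luminescence normalised to DMSO (100%) and DMSO+TSI (0%); IC50 from 4-parameter logistic fit.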
# endogenous MLKL in U937 = endogenous MLKL in U937 (Homo sapiens (Human), UniProt Q8NB16); test: Degradation assay: endogenous MLKL in U937 (western blot); conditions: U937, 24 h incubation, read-out: Degradation of endogenous MLKL in U937 (DC50 cell-based assay)
# Sequence of endogenous MLKL in U937 (Q8NB16 whole entry): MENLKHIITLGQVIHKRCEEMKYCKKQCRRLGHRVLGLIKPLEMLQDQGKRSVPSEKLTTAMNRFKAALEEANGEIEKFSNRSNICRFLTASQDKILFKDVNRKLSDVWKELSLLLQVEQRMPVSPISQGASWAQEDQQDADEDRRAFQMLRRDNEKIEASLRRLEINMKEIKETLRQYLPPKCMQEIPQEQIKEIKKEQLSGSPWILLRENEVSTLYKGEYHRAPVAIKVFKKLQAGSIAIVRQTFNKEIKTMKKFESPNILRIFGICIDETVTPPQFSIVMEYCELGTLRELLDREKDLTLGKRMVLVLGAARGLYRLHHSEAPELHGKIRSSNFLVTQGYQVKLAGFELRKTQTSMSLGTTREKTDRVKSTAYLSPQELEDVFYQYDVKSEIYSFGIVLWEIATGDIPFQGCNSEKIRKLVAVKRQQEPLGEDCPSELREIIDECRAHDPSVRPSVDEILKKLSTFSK
# Protocol: Degradation Assay: Screening Compounds Procedure to Evaluate the Activity of Compounds in Degrading Endogenous MLKL in Human and Mouse Cell
# The mouse dermal fibroblast (MDF) cell line was seeded the day before the experiment in a 24-well plate at a cell density of […] per well in a volume of 0.5 mL per well and left to attach overnight. The human monocyte cell line (U937) was seeded on the day of the experiment in a 24-well plate at a cell density of […] per well in a volume of 0.5 mL per well.
# The compound was diluted in DMSO with a starting concentration of 10 mM and titrated stepwise with a dilution of 1:5. 0.5 μL of the compound dilution was added to the appropriate well to achieve a final concentration of 10; 2; 0.4; 0.08 and 0.016 μM. A DMSO only well was included as control.
# The cells were incubated for 24 h in the presence of the compound at 37° C. and 10% CO2.
# After the 24 h incubation period, the medium was removed and cells washed with 0.5 mL PBS. The cells were then lysed directly in 60 μL of 1×SDS gel loading buffer.
# The cell lysate was heat-denatured at […] for 10 min. 10 μL of lysate per well were run on 18-well 4-15% Criterion TGX stain free gels (BIO-RAD). The proteins were then transferred onto nitrocellulose membrane with a wet transfer protocol in the Criterion Blotter (BIO-RAD).
# Membranes were blocked with 5% skim milk in TBST. Primary antibody against MLKL (clone 3H1, MABC604 Merck) was used at 1:2000 dilution in TBST with 1% BSA and left shaking over night at 4° C. After washes with TBST, the membranes were incubated with goat anti-rat IgG HRP-conjugated antibody (Southern Biotech) in 1% skim milk TBST at 1:10000 dilution for 1 h at room temperature. After TBST washes the bands were imaged on the ChemiDoc MP Imaging System (BIO-RAD) with Immobilion Western Chemiluminescent HRP Substrate Forte (Millipore). The loading control GAPDH was probed for with rabbit anti-GAPDH (CST 14C10) at 1:2000 dilution in 1% BSA TBST over night at 4° C. TBST washes were followed by incubation with goat anti-rabbit IgG HRP-conjugated antibody (Southern Biotech) in 1% skim milk TBST at 1:10000 dilution for 1 h at room temperature followed by TBST washes. The signal was detected as described above.
# The band intensity was measured in the ImageLab Software (BIO-RAD) and the MLKL values adjusted for loading with GAPDH. The percentage of degradation was calculated by normalizing the compound treated values to the DMSO only control.
# endogenous MLKL in MDF = endogenous MLKL in MDF (Mus musculus (Mouse), UniProt Q9D2Y4); test: Degradation assay: endogenous MLKL in MDF (western blot); conditions: MDF cells, 24 h incubation with compound, MLKL adjusted for loading with GAPDH, normalized to DMSO only control, read-out: Degradation of endogenous MLKL in MDF (DC50 cell-based assay)
# Sequence of endogenous MLKL in MDF (Q9D2Y4 whole entry): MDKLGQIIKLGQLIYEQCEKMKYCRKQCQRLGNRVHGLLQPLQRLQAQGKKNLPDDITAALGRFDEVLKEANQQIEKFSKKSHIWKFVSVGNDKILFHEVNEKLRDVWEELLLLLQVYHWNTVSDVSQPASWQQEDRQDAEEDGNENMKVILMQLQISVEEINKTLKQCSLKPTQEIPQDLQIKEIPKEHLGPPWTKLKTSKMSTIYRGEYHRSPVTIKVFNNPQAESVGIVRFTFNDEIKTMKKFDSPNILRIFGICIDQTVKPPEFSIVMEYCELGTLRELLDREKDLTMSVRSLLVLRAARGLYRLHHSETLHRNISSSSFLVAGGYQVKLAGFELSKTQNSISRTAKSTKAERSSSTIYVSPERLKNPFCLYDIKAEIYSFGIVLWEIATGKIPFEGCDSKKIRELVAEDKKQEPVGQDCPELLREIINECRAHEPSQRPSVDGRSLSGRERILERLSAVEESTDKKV
# Method in brief: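 MDF (seeded the day before) or U937 cells were treated 24 h at 37 °C, 10% CO2 with compound at 10, 2, 0.4, 0.08 and 0.016 μM final. Endogenous MLKL was quantified by western blot (anti-MLKL 3H1), normalized to GAPDH. Percent degradation was taken relative to DMSO control.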
# Sequence of human MLKL (full length) (Q8NB16 whole entry): as the sequence (Q8NB16 whole entry) above
Kd (human MLKL (full length)),DC50 (endogenous MLKL in U937),DC50 (endogenous MLKL in MDF),SMILES,IC50 [1]
0.01 to 1 µM,< 1 µM,< 1 µM,"C[C@H](Oc1cc(-c2nn(C)c3c(-c4cnn(C5CCN(C(=O)[C@H]6C[C@H]6C6CCN(c7cccc8c7C(=O)N(C7CCC(=O)NC7=O)C8=O)CC6)CC5)c4)cnc(N)c23)ccc1NS(=O)(=O)C(F)F)c1ccc(F)cc1 (stereo in doubt) [Compound 1129, N-[4-(4-amino-7-{1-[1-(2-{1-[2-(2,6-dioxopiperidin-3-yl)-1,3-dioxo-2,3-dihydro-1H-isoindol-4-yl]piperidin-4-yl}-(cis)-cyclopropanecarbonyl)piperidin-4-yl]-1H-pyrazol-4-yl}-1-methyl-1H-pyrazolo[4,3-c]pyridin-3-yl)-2-[(1S)-1-(4-fluorophenyl)ethoxy]phenyl]-1,1-difluoromethane-sulfonamide]",< 1 µM
0.01 to 1 µM,< 1 µM,< 1 µM,"C[C@H](Oc1cc(-c2nn(C)c3c(-c4cnn(C5CCN(C(=O)[C@H]6C[C@@H]6C6CCN(c7cccc8c7C(=O)N(C7CCC(=O)NC7=O)C8=O)CC6)CC5)c4)cnc(N)c23)ccc1NS(=O)(=O)C(F)F)c1ccc(F)cc1 (stereo in doubt) [Compound 1130, N-[4-(4-amino-7-{1-[1-(2-{1-[2-(2,6-dioxopiperidin-3-yl)-1,3-dioxo-2,3-dihydro-1H-isoindol-4-yl]piperidin-4-yl}-(trans)-cyclopropanecarbonyl)piperidin-4-yl]-1H-pyrazol-4-yl}-1-methyl-1H-pyrazolo[4,3-c]pyridin-3-yl)-2-[(1S)-1-(4-fluorophenyl)ethoxy]phenyl]-1,1-difluoromethane-sulfonamide]",< 1 µM
0.01 to 1 µM,< 1 µM,< 1 µM,"Cc1ncsc1-c1ccc(CNC(=O)[C@@H]2C[C@@H](O)CN2C(=O)[C@@H](NC(=O)CCCCCOc2ccc(-c3cnc(N)c4c(-c5ccc(NS(=O)(=O)C(F)F)c(O[C@@H](C)c6ccc(F)cc6)c5)nn(C)c34)cc2)C(C)(C)C)cc1 [Compound 1042, (2S,4R)-1-[(2S)-2-[6-(4-{4-amino-3-[4-(difluoromethanesulfonamido)-3-[(1S)-1-(4-fluorophenyl)ethoxy]phenyl]-1-methyl-1H-pyrazolo[4,3-c]pyridin-7-yl}phenoxy)hexanamido]-3,3-dimethylbutanoyl]-4-hydroxy-N-{[4-(4-methyl-1,3-thiazol-5-yl)phenyl]methyl}pyrrolidine-2-carboxamide]",1 to 10 µM
< 0.01 µM,< 1 µM,< 1 µM,"C[C@H](Oc1cc(-c2nn(C)c3c(-c4cnn(C5CCN(C(=O)C6CCN(c7cccc8c7C(=O)N(C7CCC(=O)NC7=O)C8=O)CC6)CC5)c4)cnc(N)c23)ccc1NS(=O)(=O)C(F)F)c1ccc(F)cc1 (stereo partly drawn) [Compound 1044, N-(4-{4-amino-7-[1-(1-{1-[2-(2,6-dioxopiperidin-3-yl)-1,3-dioxo-2,3-dihydro-1H-isoindol-4-yl]piperidine-4-carbonyl}piperidin-4-yl)-1H-pyrazol-4-yl]-1-methyl-1H-pyrazolo [4,3-c]pyridin-3-yl}-2-[(1S)-1-(4-fluorophenyl)ethoxy]phenyl)-1,1-difluoromethanesulfonamide]",< 1 µM
< 0.01 µM,< 1 µM,< 1 µM,"C[C@H](Oc1cc(-c2nn(C)c3c(-c4cnn(C5CCN(C(=O)[C@H]6C[C@H](Nc7cccc8c7C(=O)N(C7CCC(=O)NC7=O)C8=O)C6)CC5)c4)cnc(N)c23)ccc1NS(=O)(=O)C(F)F)c1ccc(F)cc1 (stereo partly drawn) [Compound 1047, N-{4-[4-amino-1-methyl-7-(1-{1-[(trans)-3-{[2-(2,6-dioxopiperidin-3-yl)-1,3-dioxo-2,3-dihydro-1H-isoindol-4-yl]amino}cyclobutanecarbonyl]piperidin-4-yl}-1H-pyrazol-4-yl)-1H-pyrazolo[4,3-c]pyridin-3-yl]-2-[(1 S)-1-(4-fluorophenyl)ethoxy]phenyl}-1,1-difluoromethanesulfonamide]",< 1 µM
< 0.01 µM,1 to 10 µM,< 1 µM,"C[C@H](Oc1cc(-c2nn(C)c3c(-c4cnn(C5CCN(C(=O)CC6CCN(c7cccc8c7C(=O)N(C7CCC(=O)NC7=O)C8=O)CC6)CC5)c4)cnc(N)c23)ccc1NS(=O)(=O)C(F)F)c1ccc(F)cc1 (stereo partly drawn) [Compound 1048, N-[4-(4-amino-7-{1-[1-(2-{1-[2-(2,6-dioxopiperidin-3-yl)-1,3-dioxo-2,3-dihydro-1H-isoindol-4-yl]piperidin-4-yl}acetyl)piperidin-4-yl]-1H-pyrazol-4-yl}-1-methyl-1H-pyrazolo[4,3-c]pyridin-3-yl)-2-[(1S)-1-(4-fluorophenyl)ethoxy]phenyl]-1,1-difluoromethanesulfonamide]",< 1 µM
0.01 to 1 µM,1 to 10 µM,< 1 µM,"C[C@H](Oc1cc(-c2nn(C)c3c(-c4cnn(C5CCN(C(=O)C6CN(c7cccc8c7C(=O)N(C7CCC(=O)NC7=O)C8=O)C6)CC5)c4)cnc(N)c23)ccc1NS(=O)(=O)C(F)F)c1ccc(F)cc1 (stereo partly drawn) [Compound 1051, N-(4-{4-amino-7-[1-(1-{1-[2-(2,6-dioxopiperidin-3-yl)-1,3-dioxo-2,3-dihydro-1H-isoindol-4-yl]azetidine-3-carbonyl}piperidin-4-yl)-1H-pyrazol-4-yl]-1-methyl-1H-pyrazolo[4,3-c]pyridin-3-yl}-2-[(1S)-1-(4-fluorophenyl)ethoxy]phenyl)-1,1-difluoromethane-sulfonamide]",1 to 10 µM
0.01 to 1 µM,< 1 µM,< 1 µM,"C[C@H](Oc1cc(-c2nn(C)c3c(-c4cnn(C5CCN(C(=O)C6CCN(c7cccc8c7C(=O)N(C7CCC(=O)NC7=O)C8=O)C6)CC5)c4)cnc(N)c23)ccc1NS(=O)(=O)C(F)F)c1ccc(F)cc1 (stereo partly drawn) [Compound 1054, N-(4-{4-amino-7-[1-(1-{1-[2-(2,6-dioxopiperidin-3-yl)-1,3-dioxo-2,3-dihydro-1H-isoindol-4-yl]pyrrolidine-3-carbonyl}piperidin-4-yl)-1H-pyrazol-4-yl]-1-methyl-1H-pyrazolo [4,3-c]pyridin-3-yl}-2-[(1S)-1-(4-fluorophenyl)ethoxy]phenyl)-1,1-difluoromethanesulfonamide]",< 1 µM
0.01 to 1 µM,< 1 µM,1 to 10 µM,"Cc1ncsc1-c1ccc(CNC(=O)[C@@H]2C[C@@H](O)CN2C(=O)[C@@H](NC(=O)C2(F)CC2)C(C)(C)C)c(OCCCCCCn2cc(-c3cnc(N)c4c(-c5ccc(NS(=O)(=O)C(F)F)c(O[C@@H](C)c6ccc(F)cc6)c5)nn(C)c34)cn2)c1 [Compound 1057, (2S,4R)-N-[(2-{[6-(4-{4-amino-3-[4-(difluoromethanesulfonamido)-3-[(1S)-1-(4-fluorophenyl)ethoxy]phenyl]-1-methyl-1H-pyrazolo[4,3-c]pyridin-7-yl}-1H-pyrazol-1-yl)hexyl]oxy}-4-(4-methyl-1,3-thiazol-5-yl)phenyl)methyl]-1-[(2S)-2-[(1-fluorocyclopropyl)formamido]-3,3-dimethylbutanoyl]-4-hydroxypyrrolidine-2-carboxamide]",1 to 10 µM
